Test results reported in patent publication US4931447A, “Cycloalkylamides of (8β)-1-alkyl-6-(substituted) ergolines” (Eli Lilly and Company, priority 1989, dated 1990).

What was measured:
Male Rats [1] = experiment: Copulatory performance of male rats, subcutaneous administration (Tables III, IV); format: in vivo, rat (male Sprague-Dawley); conditions: for Postejaculatory Latency / Ejaculatory Latency: 30 min before test; for Copulatory Rate: number of mounts per minute
Description: (§1) Adult male rats of the Sprague-Dawley strain were used in these studies. The sexual behavior evaluations were conducted at 2-week intervals beginning at 6 months of age and ending at 12 months of age. During the initial screening process, the male rats of various levels of sexual performance were selected for compound testing. […] Prior to treatment with a drug solution, each male rat was required to have at least two consecutive vehicle tests with similar sexual performance. Following each compound testing, additional vehicle tests were performed.
(§2) The mating tests were performed during the dark phase of the lighting cycle using red light illumination. Each behavioral test was initiated with the introduction of a receptive female rat into the arena and was terminated either 30 minutes later or immediately following the first postejaculatory mount. The indiees of mating performance that were evaluated for the rats capable of ejaculation included mount latency (the time interval from the introduction of the female rat to the first mount); intromission latency (the time interval from the introduction of the female rat to the first intromission); ejaculatory latency (the time interval from intromission to ejaculation); postejaculatory interval (the time from ejaculation to the next mount); mount frequency (the total number of mounts with or without intromission prior to ejaculation); intromission frequency (the number of mounts with intromission prior to ejaculation); intromission efficiency (the intromission frequency divided by the mount frequency); copulatory rate (the number of mounts per minute); copulatory frequency (the number of mounts prior to ejaculation); and copulatory efficiency (the number of mounts with intromission divided by the total number of mounts).
(§3) Each male rat was given a solution containing either the vehicle alone in water or the compound of Example 1, (8β)-N-cyclohexyl-1-isopropyl-6-methylergoline-8-carboxamide, in the same vehicle. Vehicle was made of 1 mM (millimolar) acetic acid and 1 mM ascorbic acid.
(§4) The results of these studies are set forth below in Tables II-VII. In the Tables "N" is the number of animals used to generate the data, the average of which is provided. The specific description of the test performed is set forth in the heading of the Tables.
Control values were obtained from the same rats 2 weeks earlier following
All injections were made 30 minutes prior to testing

5HT2 Receptors = biological target: T1, 5HT2 Receptors (Rattus norvegicus, UniProt P14842); experiment: Apparent antagonist dissociation constant (KB) at 5HT2 receptors, serotonin-induced contraction of isolated rat external jugular vein; format: cell-based, rat (male Wistar)
T1 construct: from tissue; host or cells: rat external jugular vein (isolated, male Wistar)
T1 sequence (P14842 whole entry): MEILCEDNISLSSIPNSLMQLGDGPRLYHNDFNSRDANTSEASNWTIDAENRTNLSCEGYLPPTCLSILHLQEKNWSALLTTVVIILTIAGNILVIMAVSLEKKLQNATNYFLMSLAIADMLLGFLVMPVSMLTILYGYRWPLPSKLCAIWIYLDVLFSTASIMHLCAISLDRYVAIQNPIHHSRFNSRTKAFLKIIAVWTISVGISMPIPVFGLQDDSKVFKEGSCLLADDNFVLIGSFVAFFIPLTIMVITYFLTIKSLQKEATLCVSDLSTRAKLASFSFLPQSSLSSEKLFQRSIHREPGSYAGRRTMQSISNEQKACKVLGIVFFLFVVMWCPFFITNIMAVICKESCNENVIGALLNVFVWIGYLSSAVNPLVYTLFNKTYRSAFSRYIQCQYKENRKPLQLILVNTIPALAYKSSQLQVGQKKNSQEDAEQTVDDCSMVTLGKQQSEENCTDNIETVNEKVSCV
Excerpt: Male Wistar rats (about 150-300 gram weight) were killed and their external jugular veins and thoracic aortas dissected free of connective tissue, cannulated in situ and placed in a modified Krebs' bicarbonate buffer in a suitable tissue bath. Two L-shaped 30-gauge stainless-steel hypodermic needles were inserted in each cannula and the dissected vessels gently pushed onto the needles. One needle was attached with thread to a stationary glass rod and the other to the transducer. [The procedure employed was that described by Hooker, Calkins and Fleisch, Blood Vessels, 14, 1, (1977) for use with circular smooth muscle preparations.]
The modified Krebs' bicarbonate buffer was composed of the following (concentrations in millimoles): sodium chloride, 118.2; potassium chloride, 4.6; calcium chloride dihydrate, 1.6; potassium dihydrogenphosphate, 1.2; magnesium sulfate, 1.2; dextrose, 10.0; sodium bicarbonate, 24.8; and water q.s. to 1000 g. The tissue baths were maintained at 37° C. and were aerated with 95% oxygen: 5% carbon dioxide (v:v). An initial optimum resting force of 1 g and 4 g was applied to the jugular vein and aorta, respectively. Isometric contractions were recorded as changes in grams of force on a Beckman Dynograph with Statham UC-3 transducers and microscale accessory attachment. Tissues were allowed to equilibrate 1 to 2 hours before exposure to drugs. Control responses to serotonin in the jugular vein and to norepinephrine in the aorta were obtained. The vessels were then incubated with appropriate concentrations of the test compound for one hour. Responses to serotonin or to norepinephrine were then repeated in the presence of the test compound. Contraction to serotonin was evaluated in the jugular vein since this tissue produces marked responses to serotonin in the absence of alpha receptors. See Cohen and Wiley, J. Pharm. Exp. Ther., 205, 400 (1978). Alpha receptor antagonist activity was evaluated in the aorta.
Apparent antagonist dissociation constants were determined for each concentration of the test compound according to the following equation: [formula] wherein [B] is the concentration of the antagonist and the dose ratio is the ED50 of the agonist in the presence of the antagonist divided by the control ED50. […] The -log KB values obtained for representative sensitive compounds of this invention and are given below in Table 1. ln the Table, column I provides the Example Number of the compound evaluated in the screen; columns 2-6, the identity of the compound evaluated in the screen when taken with the structure provided; and column 7, the apparent dissociation constant for the test compound.

Male Rats [2] = experiment: Copulatory performance of male rats (Non-Maters and Non-Ejaculators), subcutaneous administration, percent responding (Table II); format: in vivo, rat (male Sprague-Dawley)
Description: as §1, §2, §3, §4

Male Rats [3] = experiment: Copulatory performance of male rats after various time periods following subcutaneous administration at 10 mcg/kg (Table VII); format: in vivo, rat (male Sprague-Dawley); conditions: 10 mcg/kg s.c.
Description: as §1, §2, §3, §4
Of Example 1 at 10 mcg/kg After Various Time Periods

## CC(C)n1cc2c3c(cccc31)[C@H]1C[C@@H](C(=O)NC3CCCCC3)CN(C)[C@@H]1C2 [Example 1, (8β)-N-Cyclohexyl-1-isopropyl-6-methylergoline-8-carboxamide]
Male Rats [1]; 0.01 mcg/kg s.c., N = 14, control 366.9 ± 15.6
  Postejaculatory Latency: 366.8 ± 19.8 s
Male Rats [1]; 0.01 mcg/kg s.c., N = 14, control 602.6 ± 47.4
  Ejaculatory Latency: 530.4 ± 64.6 s
Male Rats [1]; 0.01 mcg/kg s.c., N = 14, control 0.59 ± 0.05
  Copulatory Efficiency: 0.56 ± 0.03
Male Rats [1]; 0.01 mcg/kg s.c., N = 14, control 20.1 ± 2.4
  Mount Frequency: 21.4 ± 2.0
Male Rats [1]; 0.01 mcg/kg s.c., N = 14, control 2.1 ± 0.2
  Copulatory Rate: 2.4 ± 0.3
Male Rats [1]; 0.10 mcg/kg s.c., N = 15, control 367.1 ± 18.7
  Postejaculatory Latency: 355.9 ± 13.2 s
Male Rats [1]; 0.10 mcg/kg s.c., N = 15, control 747.9 ± 61.8, significant (*)
  Ejaculatory Latency: 532.9 ± 58.0 s
Male Rats [1]; 0.10 mcg/kg s.c., N = 15, control 0.38 ± 0.03, significant (*)
  Copulatory Efficiency: 0.54 ± 0.04
Male Rats [1]; 0.10 mcg/kg s.c., N = 15, control 25.0 ± 2.3
  Mount Frequency: 22.9 ± 2.6
Male Rats [1]; 0.10 mcg/kg s.c., N = 15, control 2.0 ± 0.2, significant (*)
  Copulatory Rate: 2.7 ± 0.3
Male Rats [1]; 1.0 mcg/kg s.c., N = 11, control 371.2 ± 19.8
  Postejaculatory Latency: 357.3 ± 9.5 s
Male Rats [1]; 1.0 mcg/kg s.c., N = 11, control 749.5 ± 59.1, significant (*)
  Ejaculatory Latency: 584.8 ± 89.4 s
Male Rats [1]; 1.00 mcg/kg s.c., N = 11, control 0.53 ± 0.04, significant (*)
  Copulatory Efficiency: 0.67 ± 0.03
Male Rats [1]; 1.00 mcg/kg s.c., N = 11, control 23.1 ± 2.4
  Mount Frequency: 21.4 ± 1.7
Male Rats [1]; 1.00 mcg/kg s.c., N = 11, control 1.9 ± 0.2, significant (*)
  Copulatory Rate: 2.4 ± 0.2
Male Rats [1]; 10.0 mcg/kg s.c., N = 11, control 368.3 ± 23.0
  Postejaculatory Latency: 333.9 ± 10.9 s
Male Rats [1]; 10.0 mcg/kg s.c., N = 11, control 850.4 ± 99.2, significant (*)
  Ejaculatory Latency: 454.1 ± 78.4 s
Male Rats [1]; 10.0 mcg/kg s.c., N = 11, control 0.49 ± 0.05, significant (*)
  Copulatory Efficiency: 0.57 ± 0.04
Male Rats [1]; 10.0 mcg/kg s.c., N = 11, control 23.2 ± 2.1
  Mount Frequency: 18.5 ± 2.4
Male Rats [1]; 10.0 mcg/kg s.c., N = 11, control 1.7 ± 0.2, significant (*)
  Copulatory Rate: 2.6 ± 0.4
Male Rats [1]; 100.0 mcg/kg s.c., N = 16, control 373.3 ± 22.8
  Postejaculatory Latency: 325.6 ± 16.0 s
Male Rats [1]; 100.0 mcg/kg s.c., N = 16, control 731.8 ± 44.5, significant (*)
  Ejaculatory Latency: 463.6 ± 46.6 s
Male Rats [1]; 100.0 mcg/kg s.c., N = 16, control 0.49 ± 0.03, significant (*)
  Copulatory Efficiency: 0.59 ± 0.04
Male Rats [1]; 100.0 mcg/kg s.c., N = 16, control 24.8 ± 2.3
  Mount Frequency: 21.3 ± 1.4
Male Rats [1]; 100.0 mcg/kg s.c., N = 16, control 2.1 ± 0.2, significant (*)
  Copulatory Rate: 2.9 ± 0.3
5HT2 Receptors
  Kb: 0.214 nM
Male Rats [2]; 1 ng/kg s.c., 1/9 responding
  Non-Ejaculators Percent Responding: 11.1%
Male Rats [2]; 1 ng/kg s.c., 1/16 responding
  Non-Maters Percent Responding: 6.3%
Male Rats [2]; 10 ng/kg s.c., 4/14 responding
  Non-Maters Percent Responding: 28.6%
Male Rats [2]; 10 ng/kg s.c., 9/20 responding
  Non-Ejaculators Percent Responding: 45.0%
Male Rats [2]; 100 ng/kg s.c., 6/11 responding
  Non-Ejaculators Percent Responding: 54.5%
Male Rats [2]; 100 ng/kg s.c., 8/14 responding
  Non-Maters Percent Responding: 57.1%
Male Rats [2]; 1000 ng/kg s.c., 7/12 responding
  Non-Maters Percent Responding: 58.3%
Male Rats [2]; 1000 ng/kg s.c., 9/16 responding
  Non-Ejaculators Percent Responding: 56.3%
Male Rats [2]; 10000 ng/kg s.c., 6/11 responding
  Non-Maters Percent Responding: 54.5%
Male Rats [2]; 10000 ng/kg s.c., 11/18 responding
  Non-Ejaculators Percent Responding: 61.1%
Male Rats [3]; 0.5 hours, N = 11, control 1.7 ± 0.2, significant (*)
  Copulatory Rate: 2.6 ± 0.4 mounts/minute
Male Rats [3]; 0.5 hours, N = 11, control 368.3 ± 23.0
  Postejaculatory Interval: 333.9 ± 10.9 s
Male Rats [3]; 0.5 hours, N = 11, control 850.4 ± 99.2, significant (*)
  Ejaculatory Latency: 454.1 ± 78.4 s
Male Rats [3]; 8.0 hours, N = 11, control 2.6 ± 0.2, significant (*)
  Copulatory Rate: 3.9 ± 0.5 mounts/minute
Male Rats [3]; 8.0 hours, N = 11, control 349.5 ± 16.8, significant (*)
  Postejaculatory Interval: 320.1 ± 17.0 s
Male Rats [3]; 8.0 hours, N = 11, control 653.1 ± 61.7, significant (*)
  Ejaculatory Latency: 402.3 ± 59.7 s
Male Rats [3]; 24.0 hours, N = 15, control 2.0 ± 0.3, significant (*)
  Copulatory Rate: 2.8 ± 0.4 mounts/minute
Male Rats [3]; 24.0 hours, N = 15, control 422.4 ± 25.5
  Postejaculatory Interval: 391.7 ± 18.7 s
Male Rats [3]; 24.0 hours, N = 15, control 815.5 ± 64.6, significant (*)
  Ejaculatory Latency: 604.1 ± 68.4 s
Male Rats [3]; 48.0 hours, N = 11, control 2.4 ± 0.2, significant (*)
  Copulatory Rate: 2.5 ± 0.2 mounts/minute
Male Rats [3]; 48.0 hours, N = 11, control 364.8 ± 27.8, significant (*)
  Postejaculatory Interval: 365.4 ± 20.2 s
Male Rats [3]; 48.0 hours, N = 11, control 591.0 ± 33.8
  Ejaculatory Latency: 531.8 ± 60.6 s
